Measurements published in ChEMBL document CHEMBL3045770, “Design and synthesis of some thieno[2,3-c]pyridazine derivatives of expected anticancer activity” (2013).

Tests used:
Format in all cases: functional
[1] = system: SR; assay: Cytotoxicity against Homo sapiens (human) SR cells after 48 hr by SRB assay
[2] = system: SK-MEL-2; assay: Cytotoxicity against Homo sapiens (human) SK-MEL-2 cells after 48 hr by SRB assay; conditions: SK-MEL-2, 48 h
[3] = system: 786-0; assay: Cytotoxicity against Homo sapiens (human) 786-0 cells after 48 hr by SRB assay; conditions: 786-0, 48 h
[4] = system: SNB-19; assay: Cytotoxicity against Homo sapiens (human) SNB19 cells after 48 hr by SRB assay; conditions: SNB-19, 48 h
[5] = system: LOX IMVI; assay: Cytotoxicity against Homo sapiens (human) LOXIMVI cells after 48 hr by SRB assay
[6] = system: RXF 393; assay: Cytotoxicity against Homo sapiens (human) RXF393 cells after 48 hr by SRB assay; conditions: RXF 393, 48 h
[7] = system: SF-295; assay: Cytotoxicity against Homo sapiens (human) SF295 cells after 48 hr by SRB assay; conditions: SF-295, 48 h
[8] = system: OVCAR-3; assay: Cytotoxicity against Homo sapiens (human) OVCAR3 cells after 48 hr by SRB assay; conditions: OVCAR-3, 48 h
[9] = system: UACC-62; assay: Cytotoxicity against Homo sapiens (human) UACC62 cells after 48 hr by SRB assay; conditions: UACC-62, 48 h
[10] = system: HOP-62; assay: Cytotoxicity against Homo sapiens (human) HOP62 cells after 48 hr by SRB assay; conditions: HOP-62, 48 h
[11] = system: SN12C; assay: Cytotoxicity against Homo sapiens (human) SN12C cells after 48 hr by SRB assay
[12] = system: MCF7; assay: Cytotoxicity against Homo sapiens (human) MCF7 cells after 48 hr by SRB assay; conditions: MCF7, 48 h
[13] = system: OVCAR-8; assay: Cytotoxicity against Homo sapiens (human) OVCAR8 cells after 48 hr by SRB assay; conditions: OVCAR-8, 48 h
[14] = system: Malme-3M; assay: Cytotoxicity against Homo sapiens (human) MALME-3M cells after 48 hr by SRB assay
[15] = system: HCT-116; assay: Cytotoxicity against Homo sapiens (human) HCT116 cells after 48 hr by SRB assay; conditions: HCT-116, 48 h
[16] = system: MDA-MB-468; assay: Cytotoxicity against Homo sapiens (human) MDA-MB-468 cells after 48 hr by SRB assay; conditions: MDA-MB-468, 48 h
[17] = system: M14; assay: Cytotoxicity against Homo sapiens (human) M14 cells after 48 hr by SRB assay; conditions: M14, 48 h
[18] = system: HCT-15; assay: Cytotoxicity against Homo sapiens (human) HCT15 cells after 48 hr by SRB assay; conditions: HCT-15, 48 h
[19] = Cytotoxicity against Homo sapiens (human) NCI-ADR-RES cells after 48 hr by SRB assay
[20] = system: PC-3; assay: Cytotoxicity against Homo sapiens (human) PC3 cells after 48 hr by SRB assay; conditions: PC-3, 48 h
[21] = system: HCC 2998; assay: Cytotoxicity against Homo sapiens (human) HCC2998 cells after 48 hr by SRB assay; conditions: HCC 2998, 48 h
[22] = system: SF-268; assay: Cytotoxicity against Homo sapiens (human) SF268 cells after 48 hr by SRB assay; conditions: SF-268, 48 h
[23] = system: UO-31; assay: Cytotoxicity against Homo sapiens (human) UO31 cells after 48 hr by SRB assay; conditions: UO-31, 48 h
[24] = system: CCRF-CEM; assay: Cytotoxicity against Homo sapiens (human) CCRF-CEM cells after 48 hr by SRB assay
[25] = system: DU-145; assay: Cytotoxicity against Homo sapiens (human) DU145 cells after 48 hr by SRB assay; conditions: DU-145, 48 h
[26] = system: SK-OV-3; assay: Cytotoxicity against Homo sapiens (human) SKOV3 cells after 48 hr by SRB assay; conditions: SK-OV-3, 48 h
[27] = system: KM12; assay: Cytotoxicity against Homo sapiens (human) KM12 cells after 48 hr by SRB assay; conditions: KM12, 48 h
[28] = system: MDA-MB-435; assay: Cytotoxicity against Homo sapiens (human) MDA-MB-435 cells after 48 hr by SRB assay; conditions: MDA-MB-435, 48 h
[29] = system: Hs-578T; assay: Cytotoxicity against Homo sapiens (human) Hs 578T cells after 48 hr by SRB assay
[30] = system: SNB-75; assay: Cytotoxicity against Homo sapiens (human) SNB75 cells after 48 hr by SRB assay; conditions: SNB-75, 48 h
[31] = system: NCI-H522; assay: Cytotoxicity against Homo sapiens (human) NCI-H522 cells after 48 hr by SRB assay; conditions: NCI-H522, 48 h
[32] = system: NCI-H23; assay: Cytotoxicity against Homo sapiens (human) NCI-H23 cells after 48 hr by SRB assay; conditions: NCI-H23, 48 h
[33] = system: BT-549; assay: Cytotoxicity against Homo sapiens (human) BT549 cells after 48 hr by SRB assay; conditions: BT-549, 48 h
[34] = system: T47D; assay: Cytotoxicity against Homo sapiens (human) T47D cells after 48 hr by SRB assay
[35] = system: CAKI-1; assay: Cytotoxicity against Homo sapiens (human) Caki1 cells after 48 hr by SRB assay; conditions: CAKI-1, 48 h
[36] = system: SW-620; assay: Cytotoxicity against Homo sapiens (human) SW620 cells after 48 hr by SRB assay; conditions: SW-620, 48 h
[37] = read-out: LC50 (the source's name)

Oc1c(-c2nnc(-c3ccc(Cl)cc3)o2)sc2nnc(-c3ccccc3)c(-c3ccccc3)c12
GI50 [1]: 4.52 µM | TGI [1]: 18.3 µM | GI50 [2]: 4.13 µM | TGI [2]: 8.23 µM | GI50 [3]: 5.86 µM | TGI [3]: 18.3 µM | GI50 [4]: 4.7 µM | TGI [4]: 18.3 µM | GI50 [5]: 3.73 µM | TGI [5]: 9.47 µM | CC50 [5, 37]: 0.0183 µM | GI50 [6]: 3.66 µM | TGI [6]: 18.3 µM | GI50 [7]: 3.28 µM | TGI [7]: 8.15 µM | GI50 [8]: 3.77 µM | TGI [8]: 6.1 µM | GI50 [9]: 3.77 µM | TGI [9]: 6.61 µM | GI50 [10]: 4.99 µM | TGI [10]: 18.3 µM | GI50 [11]: 4.65 µM | TGI [11]: 17.6 µM | GI50 [12]: 4.43 µM | TGI [12]: 18.3 µM | CC50 [12, 37]: 0.0183 µM | GI50 [13]: 4.38 µM | TGI [13]: 18.3 µM | CC50 [13, 37]: 0.0183 µM | GI50 [14]: 4.61 µM | TGI [14]: 11.3 µM | GI50 [15]: 3.97 µM | TGI [15]: 7.16 µM | GI50 [16]: 5.04 µM | TGI [16]: 10.5 µM | GI50 [17]: 4.99 µM | TGI [17]: 12.2 µM | GI50 [18]: 2.27 µM | TGI [18]: 18.3 µM | GI50 [19]: 2.58 µM | TGI [19]: 18.3 µM | GI50 [20]: 4.09 µM | TGI [20]: 18.3 µM | CC50 [20, 37]: 0.0183 µM | GI50 [21]: 4.99 µM | TGI [21]: 18.3 µM | GI50 [22]: 5.52 µM | TGI [22]: 18.3 µM | GI50 [23]: 3.62 µM | TGI [23]: 6.22 µM | GI50 [24]: 2.88 µM | TGI [24]: 18.3 µM | GI50 [25]: 6.22 µM | TGI [25]: 18.3 µM | GI50 [26]: 5.04 µM | TGI [26]: 18.3 µM | CC50 [26, 37]: 0.0183 µM | GI50 [27]: 4.7 µM | TGI [27]: 15 µM | CC50 [27, 37]: 0.0183 µM | GI50 [28]: 4.65 µM | TGI [28]: 18.3 µM | GI50 [29]: 4.43 µM | TGI [29]: 18.3 µM | GI50 [30]: 5.74 µM | TGI [30]: 18.3 µM | GI50 [31]: 4.34 µM | TGI [31]: 9.76 µM | GI50 [32]: 4.94 µM | TGI [32]: 18.3 µM | GI50 [33]: 1.01 µM | TGI [33]: 18.3 µM | GI50 [34]: 4.89 µM | TGI [34]: 18.3 µM | GI50 [35]: 1.84 µM | TGI [35]: 9.95 µM | GI50 [36]: 4.56 µM | TGI [36]: 6.61 µM
